The source made the active and inactive calls. No rule for the calls is given here. A value given as a limit tells only on which side of the number the result lay.

The assay concerns the target Influenza A virus M2 proton channel (A/TW/4845/1999 H1N1). Description: NMR binding screen, influenza A virus M2 proton channel, Kd (AID 1549). Particulars: M2 protein.
In the case of `O=C(O)c1ccc(-n2cccn2)cc1`, the Kd is > 4 mM (inactive).
In the case of `COc1ccc2c(c1)CCCN2C(N)=O` it was > 4 mM (inactive); in that of `O=C(NC(=O)N1CCOCC1)c1ccccc1`, > 4 mM (inactive).
Take `N[C@@H](Cc1cc(I)c(Oc2cc(I)c(O)c(I)c2)c(I)c1)C(=O)O`: the Kd was > 4 mM (inactive).
The value for `CN(C)C(=O)Oc1ccc(-c2nnco2)cc1` was > 4 mM (inactive); that for `COc1cc2c(cc1OC)[C@@H]1C(=O)c3ccc(OC)c(CC=C(C)C)c3O[C@@H]1CO2` was > 4 mM (inactive).
The value for `C/C(=N\NC(N)=S)C(=O)O` was > 4 mM (inactive); that for `CCN1C(=O)c2cccc3c(S(N)(=O)=O)ccc1c23` was > 4 mM (inactive); that for `NCCN=C1NS(=O)(=O)c2ccccc21` was > 4 mM (inactive).
The value for `Nc1nc(-c2ccc(Cl)cc2)nn1C(=O)c1cccnc1` was > 4 mM (inactive); that for `C[C@@H]1CCC2[C@](C)(CO)[C@@H](O)CC[C@]2(C)[C@@]12CC[C@@](CO)(CCO)O2` (some centres not stated) was > 4 mM (inactive); that for `COc1cc2cc3c4cc(OC)c(OC)cc4cc[n+]3c(C)c2cc1OC` was > 4 mM (inactive).
Turning to `c1ccc(Cn2c(Nn3cnnc3)nc3ccccc32)cc1`, the Kd is > 4 mM (inactive).
The value for `O=C(Nc1ccc2c(c1)OCO2)c1cnn2cccnc12` was > 4 mM (inactive); that for `c1ccc(CCc2nc(-c3cccnc3)no2)cc1` was > 4 mM (inactive).
The value for `Oc1ccccc1-c1nnco1` was > 4 mM (inactive).
Consider `Cc1cc2ncc(C(=O)O)c(C)n2n1`, for which the Kd is > 4 mM (inactive).
For `CCC(=O)Nc1ccc(-c2nn3c(C)nnc3s2)cc1`, the Kd is > 4 mM (inactive).
The value for `CCCc1nc2ccccc2c2nc(N)nn12` was > 4 mM (inactive); that for `Cc1noc(C)c1C(=O)N1CCC2(CC1)OCCO2` was > 4 mM (inactive); that for `CS(C)=C1C(=O)NC(=O)N(c2ccccc2)C1=O` was > 4 mM (inactive).
In the case of `S=C(NCc1ccco1)NN1CCOCC1` it was > 4 mM (inactive); in that of `Cc1c(N=Cc2ccc[nH]2)c(=O)n(-c2ccccc2)n1C`, > 4 mM (inactive); in that of `COc1cc(C(=S)N2CCC(C(N)=O)CC2)ccc1O`, > 4 mM (inactive).
In the case of `O=C(O)C1CSC(c2ccccc2)N1` (configuration not stated) it was > 4 mM (inactive); in that of `O=C(CCc1n[nH]c(=O)[nH]c1=O)NCc1ccccc1`, > 4 mM (inactive); in that of `CC(=O)c1ccc(NC(=S)N2CCC(O)CC2)cc1`, > 4 mM (inactive).
As for `O=C(C1CCCCC1)N1CCN(c2ccccc2F)CC1`, the Kd is > 4 mM (inactive).
The value for `Cc1occc1C(=O)Nc1nccs1` was > 4 mM (inactive).
The value for `Cc1cc(NC(=O)c2cccc(N3C(=O)CCC3=O)c2)no1` was > 4 mM (inactive); that for `COc1ccc(C)cc1S(=O)(=O)N1CCCCC1` was > 4 mM (inactive); that for `CC(CCC(=O)O)[C@H]1CCC2C3C[C@H](O)[C@@H]4C[C@H](O)CC[C@]4(C)C3CC[C@@]21C` (some centres not stated) was > 4 mM (inactive).
The value for `O=c1cc(O)nc(SCc2ccccc2)[nH]1` was > 4 mM (inactive); that for `Cc1nc2ccc(F)cc2cc1C(=O)NCc1ccco1` was > 4 mM (inactive); that for `CN(C(=O)NC1CCS(=O)(=O)C1)C1CCCCC1` (configuration not stated) was > 4 mM (inactive).
`NC(=O)C1CCN(c2nccc(C(F)(F)F)n2)CC1`: the Kd is > 4 mM (inactive).
With `CN(C)Cc1c(N)cccc1O`, the Kd is > 4 mM (inactive).
In the case of `Cc1cc(C)n(-c2nc(C)nc(N)n2)n1` it was > 4 mM (inactive).
In the case of `O=C(c1ccco1)N1CCN(Cc2cccc(F)c2)CC1` it was > 4 mM (inactive); in that of `Cc1nnc(-n2cnc3ccccc32)c2ccccc12`, > 4 mM (inactive).
On to `C[C@H]1C[C@@H](O)[C@]2(O)[C@@]13CC(=O)OC[C@@]2(C)[C@](C)(O)C(=O)C3`, for which the Kd is > 4 mM (inactive).
Take `Cc1cc(C(=O)Nc2cccnc2)cs1`: the Kd was > 4 mM (inactive).
The value for `Cc1ccc(/C=N/n2c(C)nnc2C)cc1` was > 4 mM (inactive); that for `S=c1nc[nH]c2c1cnn2-c1ccccc1` was > 4 mM (inactive).
The value for `CC(=O)N1CCC(NC2CCCCCC2)CC1` was > 4 mM (inactive); that for `O=C(NCc1ccccn1)c1ccc(Cl)cc1Cl` was > 4 mM (inactive); that for `c1ccc(Cc2nnc(-c3ccccc3)o2)cc1` was > 4 mM (inactive).
The value for `NC(=O)c1c(Cl)nsc1-c1ccccc1Cl` was > 4 mM (inactive); that for `Nc1nc2n(c1C(=O)c1ccccc1)CCC2` was > 4 mM (inactive); that for `COC(=O)NNc1ncnc(N)c1[N+](=O)[O-]` was > 4 mM (inactive).
Consider `COc1ccc2c(c1)OCC(Cc1ccc(OC)c(OC(C)=O)c1)C2=O` (configuration not stated), for which the Kd was > 4 mM (inactive).
In the case of `COC(=O)C1[C@H]2C[C@H]3c4[nH]c5ccccc5c4CCN3C[C@@H]2CC[C@@H]1O` (some centres not stated) it was > 4 mM (inactive); in that of `c1ccc(Cc2nnc3sc(-c4cccnc4)nn23)cc1`, > 4 mM (inactive).
In the case of `Cn1cc(C(=O)N/N=C/c2ccccc2)ccc1=O` it was > 4 mM (inactive).
For the molecule `O=S1(=O)NC(=NCc2ccccc2)c2ccccc21`, the Kd was > 4 mM (inactive).
In the case of `CC(=O)c1cccc(N=C2NC(=O)CS2)c1` it was > 4 mM (inactive); in that of `Nc1cccc(-n2cnnn2)c1`, > 4 mM (inactive); in that of `CC(C)CCCC(C)[C@H]1CCC2C3CC[C@@H]4C[C@H](O)CC[C@]4(C)C3CC[C@@]21C` (some centres not stated), > 4 mM (inactive).
The value for `CC(C)(O)CC[C@@H](O)[C@](C)(O)C1CC[C@@]2(O)C3=CC(=O)C4C[C@@H](O)[C@@H](O)C[C@]4(C)C3CC[C@]12C` (some centres not stated) was > 4 mM (inactive).
The value for `O=C1CSC(=O)N1CNc1ccccc1` was > 4 mM (inactive); that for `CC1(C)Cc2cccc(CO)c2O1` was > 4 mM (inactive).
Regarding `CCOC(=O)CSCC(=O)Nc1nccs1`, the Kd was > 4 mM (inactive).
Take `O=c1cc(CO)oc(CN2CCCCC2)c1O`: the Kd is > 4 mM (inactive).
As for `c1ccc(Cc2nnc3sc(-c4ccccn4)nn23)cc1`, the Kd is > 4 mM (inactive).
`CCn1c(C)c(C(C)=O)c(N2CCOCC2)nc1=S`: the Kd was > 4 mM (inactive).
In the case of `Cc1cc(=O)n2[nH]c(N)nc2n1` it was > 4 mM (inactive).
Consider `O=C(Cn1cncn1)c1ccc(F)c(F)c1`, for which the Kd is > 4 mM (inactive).
With `O=C(O)CNC(=O)c1ccccc1`, the Kd was > 4 mM (inactive).
For the molecule `Oc1ccc2nonc2c1`, the Kd is > 4 mM (inactive).
In the case of `CC(C)=CCc1c2c(c3occ(-c4ccc(O)cc4)c(=O)c3c1O)C=CC(C)(C)O2` it was > 4 mM (inactive); in that of `S=C(Nc1ccc2nccnc2c1)N1CCOCC1`, > 4 mM (inactive).
The value for `CCOC(=O)c1c(C)nc2sccn12` was > 4 mM (inactive); that for `CC(C)=CCCC1(C)C=Cc2c(O)c3c(c(CC=C(C)C)c2O1)OC12C(=CC4CC1C(C)(C)OC2(C/C=C(/C)C(=O)O)C4O)C3=O` (configuration not stated) was > 4 mM (inactive); that for `Cn1ccnc1C(O)c1ccccc1` (configuration not stated) was > 4 mM (inactive).
In the case of `CN1CCN(c2ccc(CN)cc2)CC1` it was > 4 mM (inactive); in that of `Cc1ccc2nc(NC(=O)CN3CCOCC3)sc2c1`, > 4 mM (inactive); in that of `O=C(Nc1ccon1)c1sc2cc(F)ccc2c1Cl`, > 4 mM (inactive).
For the molecule `O=c1[nH]c(NCCO)nnc1Cc1ccccc1`, the Kd was > 4 mM (inactive).
On to `O=C(Nn1cnnc1)c1cccc(C(F)(F)F)c1`, for which the Kd is > 4 mM (inactive).
As for `O=C(O)c1ccc2sccc2c1`, the Kd was > 4 mM (inactive).
Turning to `OCCCc1nc2ccc(C(F)(F)F)cc2[nH]1`, the Kd is > 4 mM (inactive).
In the case of `CC1=C(C(N)=O)C(c2ccco2)C(C(N)=O)=C(C)N1`, the Kd was > 4 mM (inactive).
In the case of `Nc1oncc1-c1ccccn1` it was > 4 mM (inactive).
`Cc1nc(NCc2ccco2)nc2c1C(=O)CC(C)C2` (configuration not stated): the Kd is > 4 mM (inactive).
Regarding `CSc1ccc(/C=c2\sc3ncnn3c2=O)cc1`, the Kd is > 4 mM (inactive).
In the case of `O=C(NCc1ccccn1)c1ccc(Br)s1` it was > 4 mM (inactive); in that of `NCc1oc(-c2ccccc2)cc1C(=O)O`, > 4 mM (inactive).
In the case of `O=c1c2ccccc2ncn1C1CCCCC1`, the Kd was > 4 mM (inactive).
The value for `COC(=O)c1cnccc1C(F)(F)F` was > 4 mM (inactive).
For `Cc1ccc(S(=O)(=O)CC(=O)N(C)C)cc1`, the Kd is > 4 mM (inactive).
For `CCc1noc(C)c1C(=O)Nc1ncc(C)s1`, the Kd is > 4 mM (inactive).
On to `CC1(C)C2C[C@@H](O)[C@]3(C)C(CC[C@@]4(C)[C@H](c5ccoc5)OC(=O)[C@H]5O[C@]543)[C@@]2(C)[C@@H](O)C[C@H]1O` (some centres not stated), for which the Kd was > 4 mM (inactive).
The value for `NC(=O)Nc1cccc(C(F)(F)F)c1` was > 4 mM (inactive); that for `Cc1nnsc1-c1onc(C)c1C(=O)O` was > 4 mM (inactive); that for `CC(=O)CC1CCCCN1` (configuration not stated) was > 4 mM (inactive).
The value for `Cn1cccc1C=C1C(=O)NC(=S)NC1=O` was > 4 mM (inactive).
In the case of `OC[C@H]1O[C@@H](n2cnc3c(NCc4ccco4)ncnc32)[C@H](O)[C@@H]1O` it was > 4 mM (inactive); in that of `CN1CCC(N(C)C2CCN(C)CC2)CC1`, > 4 mM (inactive); in that of `O=C1C2C3C=CC(O3)C2C(=O)N1c1ccccc1` (configuration not stated), > 4 mM (inactive).
`CC1(C)CC2(C)N(N)C(=O)CN2C(=S)N1` (configuration not stated): the Kd was > 4 mM (inactive).
The value for `CCCOn1nnnc1-c1ccccc1` was > 4 mM (inactive); that for `CSc1nc(NC(C)(C)C)nc(N2CCOCC2)n1` was > 4 mM (inactive).

One may read the Kd as the concentration at which binding is half-saturated.
